We go through four compounds from patent publication US6037354A, “Alpha 1a adrenergic receptor antagonists” (Merck & Co., Inc., priority 1998, dated 2000).

Where a name gives a salt, the structure may show the parent alone.

Test [1] concerns the target T1, human alpha 1a adrenergic receptor (Homo sapiens, UniProt P35348).
T1 sequence (P35348 1-466): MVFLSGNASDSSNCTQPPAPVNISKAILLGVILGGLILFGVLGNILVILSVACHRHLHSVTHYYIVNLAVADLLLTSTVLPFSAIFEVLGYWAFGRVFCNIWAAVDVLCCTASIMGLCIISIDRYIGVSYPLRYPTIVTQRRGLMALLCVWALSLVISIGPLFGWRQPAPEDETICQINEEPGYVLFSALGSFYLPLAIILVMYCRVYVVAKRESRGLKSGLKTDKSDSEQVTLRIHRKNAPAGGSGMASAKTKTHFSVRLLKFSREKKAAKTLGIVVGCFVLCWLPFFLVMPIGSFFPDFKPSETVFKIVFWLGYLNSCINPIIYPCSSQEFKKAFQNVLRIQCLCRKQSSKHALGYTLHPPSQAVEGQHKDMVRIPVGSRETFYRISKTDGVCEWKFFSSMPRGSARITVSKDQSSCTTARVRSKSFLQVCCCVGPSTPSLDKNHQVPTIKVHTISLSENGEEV
In words: Alpha 1a Adrenergic Receptor Binding screening assay ([125I]-HEAT competition, membranes of stably transfected human alpha 1a cell line). The conditions noted are these: human alpha 1a receptor, 100 pM [125I]-HEAT, room temperature, one hour. As to the method: Screening assay: Alpha 1a Adrenergic Receptor Binding
Membranes prepared from the stably transfected human alpha 1a cell line (ATCC CRL 11140) were used to identify compounds that bind to the human alpha 1a adrenergic receptor. These competition binding reactions (total volume=200 μl) contained 50 mM Tris-HCl pH. 7.4, 5 mM EDTA, 150 mM NaCl, 100 pM [^125 I]-HEAT, membranes prepared from the alpha 1a cell line and increasing amounts of unlabeled ligand. Reactions were incubated at room temperature for one hour with shaking. Reactions were filtered onto Whatman GF/C glass fiber filters with a Inotec 96 well cell harvester. Filters were washed three times with ice cold buffer and bound radioactivity was determined (Ki).

The test system of test [2] is human alpha 1b and alpha 1d adrenergic receptors. In words: Selective Binding assays ([125I]-HEAT competition, membranes of stably transfected human alpha 1d and alpha 1b cell lines), compared with alpha 1a. Particulars: alpha 1a versus alpha 1b and alpha 1d. The protocol:
Selective Binding assays Membranes prepared from stably transfected human alpha 1d and alpha 1b cell lines (ATCC CRL 11138 and CRL 11139, respectively) were used to identify compounds that selectively bind to the human alpha 1a adrenergic receptor. These competition binding reactions (total volume=200 μl) contained 50 mM Tris-HCl pH. 7.4, 5 mM EDTA, 150 mM NaCl, 100 pM [^125 I]-HEAT, membranes prepared from cell lines transfected with the respective alpha 1 subtype expression plasmid and increasing amounts of unlabeled ligand. Reactions were incubated at room temperature for one hour with shaking. Reactions were filtered onto Whatman GF/C glass fiber filters with a Inotec 96 well cell harvester. Filters were washed three times with ice cold buffer and bound radioactivity was determined (Ki).

In general, Ki refers to a dissociation constant, usually derived from enzyme kinetics or from competition with a known ligand. Regarding `Cl.O=C(N[C@@H]1CCN([C@H]2CC[C@@H](c3ccccn3)CC2)C1)N1C(=O)OC[C@@H]1c1ccc(F)c(F)c1` [Example 12, (4S)-cis-4-(3,4-Difluorophenyl)-2-oxooxazolidine-3-carboxylic acid-[1-(4-pyridin-2-yl-cyclohexyl)-(3R)-pyrrolidin-3-yl]amide hydrochloride], in test [1], the Ki is below 200 nM. Moreover, the “selectivity in binding to alpha 1a receptors versus binding to the alpha 1b and alpha 1d receptors” value in test [2] is listed as “at least 3 fold”.

In test [1], `COc1ccccc1[C@H]1CC[C@@H](N2CC[C@@H](NC(=O)N3C(=O)OC[C@@H]3c3ccc(F)c(F)c3)C2)CC1` [Example 16, (4S)-cis-4-(3,4-Difluorophenyl)-2-oxooxazolidine-3-carboxylic acid-{1-[4-(2-methoxyphenyl)-cyclohexyl]-(3R)-pyrrolidin-3-yl}amide hydrochloride] returned a Ki of around 800 nM.

On to `O=C(N[C@@H]1CCN(C2CCC(O)(c3ccccn3)CC2)C1)N1C(=O)OC[C@@H]1c1ccc(F)c(F)c1` (stereo partly drawn) [Example 20, (4S)-trans-4-(3,4-Difluorophenyl)-2-oxooxazolidine-3-carboxylic acid-[1-(4-hydroxy-4-pyridin-2-yl-cyclohexyl)-(3R)-pyrrolidin-3-yl]amide hydrochloride], for which the “alpha 1a Ki” value in test [1] is “inactive”.

As to `NC(=O)[C@@H]1OC(=O)N(C(=O)N[C@@H]2CCN([C@H]3CC[C@H](c4ccccc4F)CC3)C2)[C@H]1c1ccc(F)c(F)c1` [Example 78, (4S,5R)-trans-4-(3,4-Difluorophenyl)-3-{1-[4-(2-fluorophenyl)cyclohexyl]-(3R)-pyrrolidin-3-ylcarbamoyl}-2-oxo-oxazolidine-5-carboxamide], the “selectivity in binding to alpha 1a receptors versus binding to the alpha 1b and alpha 1d receptors” value in test [2] is reported as “about 37 fold”.
